Molecular target: T1, ΔF508-CFTR (Homo sapiens, UniProt P13569, DEL508-508)
T1 construct: expressed in transfected cells
Assay: Membrane potential optical (FRET/VIPR) assay, identification of correction compounds
Format: cell-based
Settings: Table 3, assay not given; for Emax: read-out: % Activity / % Efficacy (relative efficacy)
Excerpt: I) Membrane Potential Optical Methods for Assaying ΔF508-CFTR Modulation Properties of Compounds
These voltage sensitive assays are based on the change in fluorescence resonant energy transfer (FRET) between the membrane-soluble, voltage-sensitive dye, DiSBAC2(3), and a fluorescent phospholipid, CC2-DMPE, which is attached to the outer leaflet of the plasma membrane and acts as a FRET donor. Changes in membrane potential (Vm) cause the negatively charged DiSBAC2(3) to redistribute across the plasma membrane and the amount of energy transfer from CC2-DMPE changes accordingly. The changes in fluorescence emission were monitored using VIPR™ II, which is an integrated liquid handler and fluorescent detector designed to conduct cell-based screens in 96- or 384-well microtiter plates.
Identification of Correction Compounds
To identify small molecules that correct the trafficking defect associated with ΔF508-CFTR; a single-addition HTS assay format was developed. The cells were incubated in serum-free medium for 16 hrs at 37° C. in the presence or absence (negative control) of test compound. As a positive control, cells plated in 384-well plates were incubated for 16 hrs at 27° C. to “temperature-correct” ΔF508-CFTR. The cells were subsequently rinsed 3× with Krebs Ringers solution and loaded with the voltage-sensitive dyes. To activate ΔF508-CFTR, 10 μM forskolin and the CFTR potentiator, genistein (20 μM), were added along with Cl^− free medium to each well. The addition of Cl^− free medium promoted Cl^− efflux in response to ΔF508-CFTR activation and the resulting membrane depolarization was optically monitored using the FRET-based voltage-sensor dyes.
• Bath Solution #1: (in mM) NaCl 160, KCl 4.5, CaCl2 2, MgCl2 1, HEPES 10, pH 7.4 with NaOH. • Chloride-free bath solution: Chloride salts in Bath Solution #1 are substituted with gluconate salts. • CC2-DMPE: Prepared as a 10 mM stock solution in DMSO and stored at −20° C. • DiSBAC2(3): Prepared as a 10 mM stock in DMSO and stored at −20° C.
NIH3T3 mouse fibroblasts stably expressing ΔF508-CFTR are used for optical measurements of membrane potential. The cells are maintained at 37° C. in 5% CO2 and 90% humidity in Dulbecco's modified Eagle's medium supplemented with 2 mM glutamine, 10% fetal bovine serum, 1×NEAA, β-ME, 1×pen/strep, and 25 mM HEPES in 175 cm^2 culture flasks. For all optical assays, the cells were seeded at 30,000/well in 384-well matrigel-coated plates and cultured for 2 hrs at 37° C. before culturing at 27° C. for 24 hrs. for the potentiator assay.

T1 sequence (P13569 with tags, fused parts or gaps DEL508-508): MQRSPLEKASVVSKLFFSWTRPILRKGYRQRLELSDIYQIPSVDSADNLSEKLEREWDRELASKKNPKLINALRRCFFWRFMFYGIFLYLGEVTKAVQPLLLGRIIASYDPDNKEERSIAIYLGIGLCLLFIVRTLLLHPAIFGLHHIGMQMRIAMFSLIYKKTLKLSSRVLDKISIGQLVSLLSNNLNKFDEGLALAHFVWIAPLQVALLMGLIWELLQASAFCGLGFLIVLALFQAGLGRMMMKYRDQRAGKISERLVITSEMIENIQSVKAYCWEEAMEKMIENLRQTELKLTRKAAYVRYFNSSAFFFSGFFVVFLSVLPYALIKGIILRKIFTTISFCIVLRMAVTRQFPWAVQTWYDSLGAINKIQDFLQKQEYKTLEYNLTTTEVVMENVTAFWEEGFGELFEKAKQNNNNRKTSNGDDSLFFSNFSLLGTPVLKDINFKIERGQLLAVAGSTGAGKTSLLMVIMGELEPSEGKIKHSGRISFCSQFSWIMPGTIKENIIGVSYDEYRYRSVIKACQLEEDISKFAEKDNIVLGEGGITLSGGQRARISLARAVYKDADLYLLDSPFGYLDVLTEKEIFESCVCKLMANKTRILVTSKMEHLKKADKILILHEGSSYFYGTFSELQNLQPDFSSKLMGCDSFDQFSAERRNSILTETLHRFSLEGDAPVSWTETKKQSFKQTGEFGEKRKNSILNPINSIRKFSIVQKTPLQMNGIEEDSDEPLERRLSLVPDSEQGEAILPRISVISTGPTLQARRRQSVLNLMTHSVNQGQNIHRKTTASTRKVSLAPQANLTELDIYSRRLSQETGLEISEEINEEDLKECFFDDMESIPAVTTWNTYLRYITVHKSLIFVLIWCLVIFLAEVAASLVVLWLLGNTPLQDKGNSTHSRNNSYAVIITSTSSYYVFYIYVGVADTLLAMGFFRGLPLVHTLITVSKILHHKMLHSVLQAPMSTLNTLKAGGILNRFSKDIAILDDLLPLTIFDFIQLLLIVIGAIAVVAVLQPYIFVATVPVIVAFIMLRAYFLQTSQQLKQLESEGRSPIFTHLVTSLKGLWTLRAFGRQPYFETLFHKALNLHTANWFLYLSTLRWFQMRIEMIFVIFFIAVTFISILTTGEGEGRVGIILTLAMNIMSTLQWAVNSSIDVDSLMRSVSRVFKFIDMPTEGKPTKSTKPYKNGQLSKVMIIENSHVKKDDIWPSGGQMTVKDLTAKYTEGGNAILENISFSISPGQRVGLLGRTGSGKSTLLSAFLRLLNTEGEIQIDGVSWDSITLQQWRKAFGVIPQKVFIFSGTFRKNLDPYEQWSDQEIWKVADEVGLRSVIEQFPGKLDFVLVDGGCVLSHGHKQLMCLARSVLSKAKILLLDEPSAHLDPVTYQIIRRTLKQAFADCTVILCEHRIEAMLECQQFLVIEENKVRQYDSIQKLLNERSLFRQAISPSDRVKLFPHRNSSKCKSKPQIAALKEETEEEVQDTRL

SMILES	% Activity / % Efficacy (relative efficacy)	EC50	Emax
CCN(C)CCOC(c1cnc(NC(=O)C2(c3ccc4c(c3)OCO4)CC2)s1)c1ccccc1Cl (centres unmarked) [Example 276]	++ (“++” means between 25% to 100%)	< 10 µM	–
CCC(c1cnc(NC(=O)C2(c3ccc4c(c3)OCO4)CC2)s1)N1CCOCC1 (centres unmarked) [Example 398]	–	10 to 25 µM	25 to 100%
COc1ccc(C(c2cnc(NC(=O)C3(c4ccc5c(c4)OCO5)CC3)s2)N2CCOCC2)cc1 (centres unmarked) [Example 400]	–	< 10 µM	> 100%
O=C1CC[C@@H](CO[C@H](c2cnc(NC(=O)C3(c4ccc5c(c4)OCO5)CC3)s2)c2ccccc2Cl)N1 [Example 256]	–	< 10 µM	> 100%
CCC(CO)NC(c1cnc(NC(=O)C2(c3ccc4c(c3)OCO4)CC2)s1)c1ccccc1Cl (centres unmarked) [Example 486]	–	< 10 µM	> 100%
O=C(Nc1ncc(Cc2ccccc2Cl)s1)C1(c2cccc(F)c2)CCCCC1 [Example 305]	–	< 10 µM	> 100%
CN(C1CCCCC1)C(c1cnc(NC(=O)C2(c3ccc4c(c3)OCO4)CC2)s1)c1ccccc1Cl (centres unmarked) [Example 413]	–	< 10 µM	> 100%
CC(C)CC(CO)NC(c1cnc(NC(=O)C2(c3ccc4c(c3)OCO4)CC2)s1)c1cccc2c1OC(F)(F)O2 (centres unmarked) [Example 498]	–	–	> 100%
COC[C@@H]1CCCN1C(c1cnc(NC(=O)C2(c3ccc4c(c3)OCO4)CC2)s1)C(C)(C)C (some centres unmarked) [Example 387]	–	10 to 25 µM	> 100%
O=C(Nc1ncc(Cc2ccccc2Cl)s1)C1(c2ccc(-n3cncn3)cc2)CC1 [Example 307]	–	< 10 µM	> 100%
O=C(Nc1ncc(Cc2ccccc2Cl)s1)C1(c2cccc(N3CCOCC3)c2)CC1 [Example 315]	–	< 10 µM	25 to 100%
CCN(CC)c1ccc(-c2csc(NC(=O)C3(c4ccc5c(c4)OCO5)CC3)n2)cc1 [Example 120]	+++ (“+++” means>100%)	< 10 µM	–
O=C(Nc1cnc(Cc2ccccc2Cl)s1)C1(c2ccc3c(c2)OCO3)CC1 [Example 267]	–	< 10 µM	> 100%
COc1cccc(C(c2cnc(NC(=O)C3(c4ccc5c(c4)OCO5)CC3)s2)N2CCOCC2)c1 (centres unmarked) [Example 374]	–	< 10 µM	> 100%
O=C(Nc1nc(-c2ccccc2Cl)cs1)C1(c2ccc3c(c2)OCO3)CC1 [Example 81]	+++ (“+++” means>100%)	< 10 µM	–
CS(=O)(=O)c1ccc(C(c2cnc(NC(=O)C3(c4ccc5c(c4)OCO5)CC3)s2)N2CC[C@@H](O)C2)cc1 (some centres unmarked) [Example 378]	–	10 to 25 µM	25 to 100%
COc1ccc(C2(C(=O)Nc3nc(-c4cccc(OC)c4)cs3)CC2)cc1 [Example 122]	+++ (“+++” means>100%)	< 10 µM	–
O=C(Nc1ncc(C(NC2CCCC2)c2ccccc2Cl)s1)C1(c2ccc3c(c2)OCO3)CC1 (centres unmarked) [Example 414]	–	< 10 µM	> 100%
C[C@@H](O)CNC(c1cnc(NC(=O)C2(c3ccc4c(c3)OCO4)CC2)s1)c1ccccc1Cl (some centres unmarked) [Example 487]	–	< 10 µM	> 100%
Cc1ccccc1C1(C(=O)Nc2ncc(C(c3ccccc3Cl)N3CC[C@@H](O)C3)s2)CC1 (some centres unmarked) [Example 444]	–	< 10 µM	> 100%
COc1ccc(F)cc1Cc1cnc(NC(=O)C2(c3ccc4c(c3)OCO4)CC2)s1 [Example 182]	+++ (“+++” means>100%)	< 10 µM	–
COc1ccc(C2(C(=O)Nc3ncc(Sc4ccc(N)cc4)s3)CC2)cc1 [Example 96]	++ (“++” means between 25% to 100%)	< 10 µM	–
CC(=O)c1sc(NC(=O)C2(c3ccc4c(c3)OCO4)CC2)nc1C [Example 107]	+++ (“+++” means>100%)	< 10 µM	–
O=C(Nc1ncc(C(c2ccccc2Cl)N2CCOCC2)s1)C1(c2ccc3c(c2)OCO3)CC1 (centres unmarked) [Example 203]	++ (“++” means between 25% to 100%)	< 10 µM	–
O=C(Nc1ncc(C(c2ccccc2)N2CCCC2)s1)C1(c2ccc3c(c2)OCO3)CC1 (centres unmarked) [Example 359]	–	< 10 µM	> 100%

SMILES	% Activity / % Efficacy (relative efficacy)	EC50	Emax
COc1cccc(-c2csc(NC(=O)C3(c4ccc5c(c4)OCO5)CC3)n2)c1 [Example 114]	+++ (“+++” means>100%)	< 10 µM	–
COc1ccccc1C(c1cnc(NC(=O)C2(c3ccc4c(c3)OCO4)CC2)s1)N(C)C (centres unmarked) [Example 364]	–	10 to 25 µM	> 100%
O=C(Nc1ncc(C(c2cccc(Cl)c2)N2CC[C@@H](O)C2)s1)C1(c2ccc3c(c2)OCO3)CC1 (some centres unmarked) [Example 343]	–	< 10 µM	> 100%
COc1ccc(C2(C(=O)Nc3nc(-c4ccccc4OC)cs3)CC2)cc1 [Example 121]	–	< 10 µM	> 100%
COc1ccc(C2(C(=O)Nc3ncc(Sc4ccccc4Cl)s3)CC2)cc1 [Example 36]	–	< 10 µM	25 to 100%
COc1cccc(C(c2cnc(NC(=O)C3(c4ccc5c(c4)OCO5)CC3)s2)N2CCCC2)c1 (centres unmarked) [Example 373]	–	< 10 µM	> 100%
CN(C)CCNC(c1cnc(NC(=O)C2(c3ccc4c(c3)OCO4)CC2)s1)c1ccccc1Cl (centres unmarked) [Example 187]	+++ (“+++” means>100%)	< 10 µM	–
CCCN(CCO)C(c1cnc(NC(=O)C2(c3ccc4c(c3)OCO4)CC2)s1)c1ccccc1Cl (centres unmarked) [Example 426]	–	< 10 µM	25 to 100%
O=C(Nc1ncc(C(OCC2CCOC2)c2ccccc2Cl)s1)C1(c2ccc3c(c2)OCO3)CC1 (centres unmarked) [Example 258]	–	< 10 µM	> 100%
COc1ccccc1C1(C(=O)Nc2ncc(Cc3ccccc3Cl)s2)CC1 [Example 65]	–	< 10 µM	> 100%
COc1ccccc1C1(c2cnc(NC(=O)C3(c4ccc5c(c4)OCO5)CC3)s2)CC1 [Example 245]	+++ (“+++” means>100%)	< 10 µM	–
O=C(Nc1ncc(C(NCCN2CCOCC2)c2ccccc2Cl)s1)C1(c2ccc3c(c2)OCO3)CC1 (centres unmarked) [Example 188]	++ (“++” means between 25% to 100%)	< 10 µM	–
O=C(Nc1ncc(C(c2cc(F)ccc2F)N2CCCC2)s1)C1(c2ccc3c(c2)OCO3)CC1 (centres unmarked) [Example 471]	–	< 10 µM	> 100%
COc1ccc(C2(C(=O)Nc3nc(-c4cccc(Cl)c4)cs3)CC2)cc1 [Example 123]	+++ (“+++” means>100%)	< 10 µM	–
CCOc1ccccc1C(N[C@@H](CO)CC(C)C)c1cnc(NC(=O)C2(c3ccc4c(c3)OCO4)CC2)s1 (some centres unmarked) [Example 476]	–	< 10 µM	–
CS(=O)(=O)c1ccc(C2(C(=O)Nc3ncc(Cc4ccccc4Cl)s3)CC2)cc1 [Example 309]	–	< 10 µM	25 to 100%
COc1ccccc1Oc1cnc(NC(=O)C2(c3ccc4c(c3)OCO4)CC2)s1 [Example 94]	+++ (“+++” means>100%)	< 10 µM	–
O=C(Nc1ncc(C(NCCN2CCCC2)c2ccccc2Cl)s1)C1(c2ccc3c(c2)OCO3)CC1 (centres unmarked) [Example 406]	–	< 10 µM	25 to 100%
CCC(c1cnc(NC(=O)C2(c3ccc4c(c3)OCO4)CC2)s1)N1CCCC1 (centres unmarked) [Example 397]	–	10 to 25 µM	25 to 100%
O=C(Nc1ncc(C(OCCCCO)c2ccccc2Cl)s1)C1(c2ccc3c(c2)OCO3)CC1 (centres unmarked) [Example 275]	+ (“+” means<25%)	< 10 µM	–
Cc1ccc(-c2csc(NC(=O)C3(c4ccc5c(c4)OCO5)CC3)n2)c(C)c1 [Example 127]	+++ (“+++” means>100%)	< 10 µM	–
COc1ccc(C2(C(=O)Nc3ncc(CCc4ccccc4OC)s3)CC2)cc1 [Example 194]	++ (“++” means between 25% to 100%)	< 10 µM	–
COc1ccc(C2(C(=O)Nc3ncc(Cc4cccnc4OC)s3)CC2)cc1 [Example 176]	+++ (“+++” means>100%)	< 10 µM	–
CC(C)(C)[C@@H](CO)NC(c1cnc(NC(=O)C2(c3ccc4c(c3)OCO4)CC2)s1)c1ccccc1Cl (some centres unmarked) [Example 490]	–	10 to 25 µM	25 to 100%
COc1ccc(C2(C(=O)Nc3nc(-c4ccc(S(C)(=O)=O)cc4)cs3)CC2)cc1 [Example 125]	+++ (“+++” means>100%)	< 10 µM	–

— patent publication US7977322B2 (Vertex Pharmaceuticals Incorporated, priority 2004, dated 2011)
